Calls of active or inactive are those of the source. The rule behind the calls is not given here.
How the values were obtained:
[1] = molecular target: T1, Casein kinase I isoform delta (Homo sapiens, UniProt P48730); details: at 10 µM
Target sequence in this assay (P48730 whole entry, looked up, canonical isoform): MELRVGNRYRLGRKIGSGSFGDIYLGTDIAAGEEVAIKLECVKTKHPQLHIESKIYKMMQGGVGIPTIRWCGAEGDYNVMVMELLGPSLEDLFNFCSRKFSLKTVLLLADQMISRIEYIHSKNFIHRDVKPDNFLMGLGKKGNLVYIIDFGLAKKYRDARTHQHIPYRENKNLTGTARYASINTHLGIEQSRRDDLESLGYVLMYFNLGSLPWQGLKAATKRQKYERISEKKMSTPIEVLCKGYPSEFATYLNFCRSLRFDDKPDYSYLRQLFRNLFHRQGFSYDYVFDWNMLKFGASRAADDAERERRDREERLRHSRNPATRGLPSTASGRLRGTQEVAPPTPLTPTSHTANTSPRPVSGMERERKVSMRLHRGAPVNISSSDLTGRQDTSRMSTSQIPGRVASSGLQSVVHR
Description: Inhibition of human recombinant CK-1delta using casein as substrate at 10 uM after 60 mins by Kinase-Glo assay relative to control

[2] = molecular target: T1, Casein kinase I isoform delta; assay: Inhibition of human recombinant CK-1delta using casein as substrate after 60 mins by Kinase-Glo assay
Target sequence in this assay (P48730 whole entry, canonical isoform): as the sequence (P48730 whole entry, looked up, canonical isoform) above

[3] = pampa
Description: Permeability of the compound by PAMPA

[4] = molecular target: T1, Casein kinase I isoform delta; assay: Competitive inhibition of human recombinant CK-1delta using casein as substrate at 0.25 to 0.5 uM by Lineweaver-Burk plot analysis in presence of ATP
Target sequence in this assay (P48730 whole entry, looked up, canonical isoform): as above

## COc1ccc2nc(NC(=O)Cc3ccccc3Cl)sc2c1
[1]
  inhibition: > 60%

## CS(=O)(=O)c1ccc2nc(NC(=O)Cc3cccs3)sc2c1
[2]
  IC50: 2.69 µM

## COc1cccc(CC(=O)Nc2nc3ccc(C(F)(F)F)cc3s2)c1
[1]
  inhibition: > 60%
[3]
  permeability: 11.2 ×10⁻⁶ cm/s

## CN(C)CCCN1c2ccccc2Sc2ccccc21 [PROMAZINE]
[3]
  permeability: 12.7 ×10⁻⁶ cm/s

## COc1ccc2nc(NC(=O)Cc3ccc(Cl)cc3)sc2c1
[1]
  inhibition: > 60%

## COc1cc(CC(=O)Nc2nc3ccc(C(F)(F)F)cc3s2)cc(OC)c1OC
[1]
  inhibition: > 60%
[3]
  permeability: 7.2 ×10⁻⁶ cm/s

## COc1ccc2nc(NC(=O)Cc3cc(OC)c(OC)c(OC)c3)sc2c1
[2]
  IC50: 1.12 µM
[1]
  inhibition: > 60%

## COc1ccc2nc(NC(=O)Cc3ccc(Cl)c(Cl)c3)sc2c1
[1]
  inhibition: > 60%

## CN1C(C(=O)Nc2ccccn2)=C(O)c2ccccc2S1(=O)=O [PIROXICAM]
[3]
  permeability: 0.5 ×10⁻⁶ cm/s

## COc1cccc(CC(=O)Nc2nc3ccc(OC)cc3s2)c1
[1]
  inhibition: > 60%

## CCOc1ccc2nc(NC(=O)Cc3ccccc3OC)sc2c1
[1]
  inhibition: > 60%

## COc1ccc2nc(NC(=O)Cc3ccccc3OC)sc2c1
[1]
  inhibition: > 60%

## COc1ccc(NC(=O)Nc2nc3ccc(C(F)(F)F)cc3s2)cc1
[1]
  inhibition: > 60%

## O=C(Nc1nc2ccccc2s1)C(c1ccccc1)c1ccccc1
[1]
  inhibition: > 60%

## CCOc1ccc2nc(NC(=O)Cc3cccc(Cl)c3)sc2c1
[1]
  inhibition: > 60%

## O=C(Cc1cccc(Cl)c1)Nc1nc2ccc(C(F)(F)F)cc2s1
[1]
  inhibition: > 60%
[3]
  permeability: 11.2 ×10⁻⁶ cm/s

## COc1ccc(CC(=O)Nc2nc3ccc(OC)cc3s2)cc1
[1]
  inhibition: > 60%

## O=C(Cc1ccccc1)Nc1nc2ccccc2s1
[1]
  inhibition: > 60%

## O=C(Cc1cccc(Cl)c1)Nc1nncs1
[1]
  inhibition: 20%

## O=C(Cc1ccc(Cl)c(Cl)c1)Nc1nc2ccc(C(F)(F)F)cc2s1
[1]
  inhibition: > 60%
[3]
  permeability: 1.4 ×10⁻⁶ cm/s

## COc1ccccc1CC(=O)Nc1nc2ccc(C(F)(F)F)cc2s1
[1]
  inhibition: > 60%
[3]
  permeability: 11.2 ×10⁻⁶ cm/s

## CCOc1ccc2nc(NC(=O)Cc3cc(OC)c(OC)c(OC)c3)sc2c1
[1]
  inhibition: > 60%

## O=C(Cc1ccc(Cl)cc1)Nc1nc2ccccc2o1
[2]
  IC50: 4.11 µM
[1]
  inhibition: > 60%

## O=C(Cc1ccccc1Cl)Nc1nc2ccc(C(F)(F)F)cc2s1
[1]
  inhibition: > 60%

## CCOC(=O)c1sc(NC(=O)COCc2ccccc2)nc1C
[2]
  IC50: 7.38 µM
[1]
  inhibition: > 60%

## CCOC(=O)c1sc(NC(=O)CNC(=O)c2ccccc2)nc1C
[2]
  IC50: 7.45 µM

## CCOc1ccc2nc(NC(=O)Cc3ccc(OC)cc3)sc2c1
[1]
  inhibition: > 60%

## CC(=O)c1sc(NC(=O)Cc2cccc(Cl)c2)nc1C
[2]
  IC50: 1.12 µM
[1]
  inhibition: > 60%

## COc1ccccc1CC(=O)Nc1nc2ccc(C)cc2s1
[1]
  inhibition: > 60%

## COc1ccc(CC(=O)Nc2nc3ccc(C(F)(F)F)cc3s2)cc1
[1]
  inhibition: > 60%
[3]
  permeability: 14.6 ×10⁻⁶ cm/s

## CCOC(=O)c1sc(NC(=O)CNC(=O)c2ccc(N3CCOCC3)cc2)nc1C
[2]
  IC50: 9.31 µM

## CCOc1ccc2nc(NC(=O)Cc3ccccc3Cl)sc2c1
[1]
  inhibition: > 60%

## CCOc1ccc2nc(NC(=O)Cc3cccc(OC)c3)sc2c1
[1]
  inhibition: > 60%

## O=C(Cc1ccc(Cl)c(Cl)c1)Nc1nc2ccc(OC(F)(F)F)cc2s1
[1]
  inhibition: > 60%

## Cc1ccc2nc(NC(=O)Cc3cccc(Cl)c3)sc2c1
[1]
  inhibition: > 60%
[3]
  permeability: 5.6 ×10⁻⁶ cm/s

## O=C(Cc1ccccc1)Nc1nc2ccc(C(F)(F)F)cc2s1
[1]
  inhibition: > 60%
[3]
  permeability: 4.4 ×10⁻⁶ cm/s

## CCOc1ccc2nc(NC(=O)C(c3ccccc3)c3ccccc3)sc2c1
[1]
  inhibition: > 60%

## O=C(Cc1ccc(Cl)cc1)Nc1nc2ccc(C(F)(F)F)cc2s1
[1]
  inhibition: > 60%
[3]
  permeability: 9.6 ×10⁻⁶ cm/s

## CCOC(=O)c1sc(NC(=O)CNC(=O)Cc2ccccc2)nc1C
[2]
  IC50: 10.1 µM

## O=C(Cc1cccc(Cl)c1)Nc1nc2ccc(OC(F)(F)F)cc2s1
[1]
  inhibition: > 60%

## O=C(CCc1cccc(Cl)c1)Nc1nc2ccccc2s1
[1]
  inhibition: > 60%

## COc1cc(OC)c(C=C2C(=O)Nc3ccccc32)c(OC)c1
[4]
  inhibition: Active

## O=C(CC(c1ccccc1)c1ccccc1)Nc1nc2ccccc2s1
[1]
  inhibition: > 60%

## CCOC(=O)c1sc(NC(=O)CNC(=O)CC(c2ccccc2)c2ccccc2)nc1C
[2]
  IC50: 3.79 µM

## COc1cc(CC(=O)Nc2nc3ccc(OC(F)(F)F)cc3s2)cc(OC)c1OC
[1]
  inhibition: > 60%
[3]
  permeability: 2.6 ×10⁻⁶ cm/s

## CCOc1ccc2nc(NC(=O)Cc3ccc(Cl)c(Cl)c3)sc2c1
[1]
  inhibition: > 60%

## COc1ccc(OC)c(CC(=O)Nc2nc3ccc(C(F)(F)F)cc3s2)c1
[1]
  inhibition: > 60%

## COc1ccccc1CC(=O)Nc1nc2ccc(OC(F)(F)F)cc2s1
[1]
  inhibition: > 60%

## COc1ccc2nc(NC(=O)Cc3cccc(Cl)c3)sc2c1
[1]
  inhibition: > 60%

## O=C(Cc1cccc(C(F)(F)F)c1)Nc1nc2ccc(C(F)(F)F)cc2s1
[1]
  inhibition: > 60%
[3]
  permeability: 6.4 ×10⁻⁶ cm/s

## CCOc1ccc2nc(NC(=O)Cc3ccc(Cl)cc3)sc2c1
[2]
  IC50: 1.11 µM
[1]
  inhibition: > 60%

## CNCCCN1c2ccccc2CCc2ccccc21 [DESIPRAMINE]
[3]
  permeability: 14.6 ×10⁻⁶ cm/s

## COc1ccccc1CC(=O)Nc1nc2ccc(F)cc2s1
[1]
  inhibition: > 60%

## COc1ccccc1CC(=O)Nc1nc2ccc(Br)cc2s1
[1]
  inhibition: > 60%

## COc1ccccc1CC(=O)Nc1nc2ccc(Cl)cc2s1
[1]
  inhibition: > 60%

Reference: ChEMBL document CHEMBL3232937
